Experimental data published in US20110144079A1, “ANTIMICROBIAL SYSTEM” (priority 2008, published 2011).

Columns and labels:
B. cenocepacia J2315 [1] = assay: Broth microdilution MIC/MBC; type: cell-based
Protocol: (§1) Broth microdilution tests were performed according to NCCLS guidelines. Serial two-fold dilutions of each imidazolium salt (from an original working solution which had been 0.22 μm sterile filtered) in Mueller-Hinton Broth (MHB) (100 μl) were prepared in 96-well micro-titre plates over the range 0.0000625-1% w/v. The inoculum to be tested was prepared by adjusting the turbidity of an actively overnight growing broth culture in MHB to an optical density at 550 nm equivalent to 1×10^8 CFU/ml. The suspension was further diluted to provide a final inoculum density of 2×10^5 CFU/ml in MHB as verified by total viable count. The inoculum to be tested (100 μl, 2×10^5 CFU ml^−1) was added to each well of the microdilution trays which were incubated aerobically for 24 h at 37° C. Positive and negative growth controls were included in every assay (6 replicates). After determining the MICs, minimum bactericidal concentrations (MBCs) were determined by spreading 20 μl of suspension from wells showing no growth onto MHA plates, which were then incubated for 24 h and examined for 99.9% killing.

C. tropicalis NCTC 7393 [2] = assay: Broth microdilution MIC/MBC; type: cell-based; settings: for MBC: C. tropicalis NCTC 7393, 99.9% killing; for MIC: C. tropicalis NCTC 7393, 24 h at 37° C.
Protocol: as §1

E-MRSA 15 [3] = assay: Broth microdilution MIC/MBC; type: cell-based; settings: for MBC: E-MRSA 15, 99.9% killing; for MIC: E-MRSA 15, 24 h at 37° C.
Protocol: as §1

E. coli NCTC 8196 [4] = assay: Broth microdilution MIC/MBC; type: cell-based; settings: for MBC: E. coli NCTC 8196, 99.9% killing; for MIC: E. coli NCTC 8196, 24 h at 37° C.
Protocol: as §1

K. aerogenes NCTC 7427 [5] = assay: Broth microdilution MIC/MBC; type: cell-based; settings: for MBC: K. aerogenes NCTC 7427, 99.9% killing; for MIC: K. aerogenes NCTC 7427, 24 h at 37° C.
Protocol: as §1

P. aeruginosa PA01 [6] = assay: Broth microdilution MIC/MBC; type: cell-based; settings: for MBC: P. aeruginosa PA01, 99.9% killing; for MIC: P. aeruginosa PA01, 24 h at 37° C., read-out: MIC
Protocol: as §1

P. mirabilis NCTC 12442 [7] = assay: Broth microdilution MIC/MBC; type: cell-based; settings: for MBC: P. mirabilis NCTC 12442, 99.9% killing; for MIC: P. mirabilis NCTC 12442, 24 h at 37° C.
Protocol: as §1

S. aureus ATCC 29213 [8] = assay: Broth microdilution MIC/MBC; type: cell-based; settings: for MBC: S. aureus ATCC 29213, 99.9% killing; for MIC: S. aureus ATCC 29213, 24 h at 37° C.
Protocol: as §1

[9] = test system: S. epidermidis ATCC 12228; assay: Broth microdilution MIC/MBC; type: cell-based; settings: for MBC: S. epidermidis ATCC 12228, 99.9% killing; for MIC: S. epidermidis ATCC 12228, 24 h at 37° C.
Protocol: as §1

[10] = test system: S. epidermidis ATCC 35984; assay: Broth microdilution MIC/MBC; type: cell-based; settings: for MBC: S. epidermidis ATCC 35984, 99.9% killing; for MIC: S. epidermidis ATCC 35984, 24 h at 37° C.
Protocol: as §1

MRSA [11] = assay: Broth microdilution MIC/MBC; type: cell-based, methicillin-resistant S. aureus
Protocol: as §1

E. coli PIII [12] = assay: Broth microdilution MIC; type: cell-based
Protocol: as §1

B. cenocepacia J2315 [13] = assay: Biofilm assay (Calgary Biofilm Device), MBEC; type: cell-based; settings: B. cenocepacia J2315 24 h biofilm, 24 h challenge
Protocol: (§2) Biofilms of each test organism were grown in the Calgary Biofilm Device (commercially available as the MBEC Assay™ for Physiology & Genetics, Innovotech Inc., Edmonton, Alberta, Canada). The device, a micro-titre plated based assay, consists of two parts; a microtitre plate containing the inoculated test medium and a polystyrene lid with 96 identical pegs on which the microbial biofilm forms under gyrorotary incubation. The biofilm assay was conducted according to the MBEC™ assay protocol as supplied by the manufacturer, with slight modifications. Inocula of each test organism were prepared in MHB as described above and adjusted to provide a final inoculum density of ˜10^7 CFU ml^−1 (as confirmed by viable count). 150 μl of the inoculated media was transferred to each well of the 96-well microtitre plate and the assay plate lid, bearing 96 pegs was placed into the microtitre plate. The MBEC assay plates were placed in a gyrorotary incubator (37° C., 95% relative humidity) for 24 h to permit growth and comparison of 24 h biofilms of each test strain. Positive and negative growth controls were included in each plate (6 replicates). Initial and 24 h planktonic viable counts were measured, as were 24 h biofilm counts, expressed as CFU peg^−1, according to manufacturers instructions. After 24 h, the peg lid of the MBEC assay plate was gently rinsed three times. After rinsing, the peg lid of the MBEC assay was transferred to a ‘challenge’ plate. Serial dilutions of each imidazolium salt were prepared in 200 μl of MHB containing various concentrations of IL in each well. Positive growth control and sterility control were included in each assay plate. […] Biofilms were dislodged into recovery media by sonication for 5 minutes and the peg lid discarded. The recovery plate is incubated overnight and visually checked after 24 h for turbidity. In addition, optical density measurements for each plate were recorded at 550 nm. Clear wells were taken as evidence of biofilm eradication and the MBEC value was assigned as the lowest concentration at which no growth was observed after 24 h incubation. Plates were incubated for a further 24 h to confirm biofilm eradication concentrations.

C. tropicalis NCTC 7393 [14] = assay: Biofilm assay (Calgary Biofilm Device), MBEC; type: cell-based; settings: C. tropicalis NCTC 7393 24 h biofilm, 24 h challenge
Protocol: as §2

E-MRSA 15 [15] = assay: Biofilm assay (Calgary Biofilm Device), MBEC; type: cell-based; settings: E-MRSA 15 24 h biofilm, 24 h challenge
Protocol: as §2

E. coli PIII [16] = assay: Biofilm assay (Calgary Biofilm Device), MBEC; type: cell-based; settings: E. coli PIII 24 h biofilm, 24 h challenge
Protocol: as §2

K. aerogenes NCTC 7427 [17] = assay: Biofilm assay (Calgary Biofilm Device), MBEC; type: cell-based; settings: K. aerogenes NCTC 7427 24 h biofilm, 24 h challenge
Protocol: as §2

P. aeruginosa PA01 [18] = assay: Biofilm assay (Calgary Biofilm Device), MBEC; type: cell-based; settings: P. aeruginosa PA01 24 h biofilm, 24 h challenge
Protocol: as §2

P. mirabilis NCTC 12442 [19] = assay: Biofilm assay (Calgary Biofilm Device), MBEC; type: cell-based; settings: P. mirabilis NCTC 12442 24 h biofilm, 24 h challenge
Protocol: as §2

S. aureus ATCC 29213 [20] = assay: Biofilm assay (Calgary Biofilm Device), MBEC; type: cell-based; settings: S. aureus ATCC 29213 24 h biofilm, 24 h challenge
Protocol: as §2

[21] = test system: S. epidermidis ATCC 35984; assay: Biofilm assay (Calgary Biofilm Device), MBEC; type: cell-based; settings: for MBEC: S. epidermidis ATCC 35984 24 h biofilm, 24 h challenge
Protocol: as §2

MRSA [22] = assay: Biofilm assay (Calgary Biofilm Device), MBEC; type: cell-based, methicillin-resistant S. aureus
Protocol: as §2

MRSA [23] = assay: Zone of inhibition on MRSA-seeded agar culture plates; type: cell-based, methicillin-resistant S. aureus; settings: 40 μL of ionic liquid applied to MRSA-seeded agar culture plates
Text: As used herein, CyMIMCI, refers to 1-alkyl-3-methyl-imidazolium chloride ionic liquids, wherein the alkyl group is a straight chain alkyl group having y carbon atoms.

B. cereus [24] = assay: Broth microdilution MIC/MBC; type: cell-based; settings: for MBC: 99.9% killing; for MIC: 24 h at 37° C.
Protocol: as §1

S. aureus PIII [25] = assay: Broth microdilution MIC; type: cell-based
Protocol: as §1

B. cereus [26] = assay: Biofilm assay (Calgary Biofilm Device), MBEC; type: cell-based; settings: B. cereus 24 h biofilm, 24 h challenge
Protocol: as §2

E. coli NCTC 8196 [27] = assay: Biofilm assay (Calgary Biofilm Device), MBEC; type: cell-based; settings: E. coli NCTC 8196 24 h biofilm, 24 h challenge
Protocol: as §2

S. aureus PIII [28] = assay: Biofilm assay (Calgary Biofilm Device), MBEC; type: cell-based; settings: S. aureus PIII 24 h biofilm, 24 h challenge
Protocol: as §2

Row | Compound | MBC (C. tropicalis NCTC 7393 [2]) [µM] | MIC (C. tropicalis NCTC 7393 [2]) [µM] | MBC (E-MRSA 15 [3]) [µM] | MIC (E-MRSA 15 [3]) [µM] | MBC (E. coli NCTC 8196 [4]) [µM] | MIC (E. coli NCTC 8196 [4]) [µM] | MBC (K. aerogenes NCTC 7427 [5]) [µM] | MIC (K. aerogenes NCTC 7427 [5]) [µM] | MBC (P. aeruginosa PA01 [6]) [µM] | MBC (P. mirabilis NCTC 12442 [7]) [µM] | MIC (P. mirabilis NCTC 12442 [7]) [µM] | MBC (S. aureus ATCC 29213 [8]) [µM] | MIC (S. aureus ATCC 29213 [8]) [µM] | MBC [9] [µM] | MIC [9] [µM] | MBC [10] [µM] | MIC [10] [µM] | MBEC (C. tropicalis NCTC 7393 [14]) [µM] | MBEC (E-MRSA 15 [15]) [µM] | MBEC (K. aerogenes NCTC 7427 [17]) [µM] | also measured
1 | CCCCCCCCn1cc[n+](C)c1.[Cl-] [C8MIMCl] | >1444 | 1444 | >1444 | 722 | 1444 | 722 | >1444 | 1444 | >1444 | >1444 | 1444 | >1444 | 722 | 1444 | 361 | 1444 | 722 | >43331 | 2708 | 43331 | MBC (B. cenocepacia J2315 [1]; B. cenocepacia J2315, 99.9% killing): >1444 µM; MIC (B. cenocepacia J2315 [1]; B. cenocepacia J2315, 24 h at 37° C.): >1444 µM; MBC (MRSA [11]; 99.9% killing): >1444 µM; MIC (MRSA [11]; 24 h at 37° C.): 1444 µM; MIC (E. coli PIII [12]): 722 µM; MBEC (B. cenocepacia J2315 [13]): 43331 µM; MBEC (E. coli PIII [16]): 21666 µM; MBEC (P. aeruginosa PA01 [18]): 21666 µM; MBEC (P. mirabilis NCTC 12442 [19]): 43331 µM; MBEC (S. aureus ATCC 29213 [20]): 2708 µM; MBEC [21]: 10833 µM; percent weight to volume of ionic liquid that corresponds to the MBEC value ([21]; S. epidermidis ATCC 35984 biofilm): (0.25) % w/v; MBEC (MRSA [22]; MRSA 24 h biofilm, 24 h challenge): 21666 µM; percent weight to volume of ionic liquid that corresponds to the MBEC value (MRSA [22]; MRSA biofilm): (0.5) % w/v; Zone Of Inhibition Radius (MRSA [23]): 12 mm
2 | CCCCCCCCCCCCCC[n+]1cccc2ccccc21.[Br-] [1-alkyl-3-quinolinium bromides 14] | 3 | 3 | 5.8 | 5.8 | 11.6 | 11.6 | 11.6 | 5.8 | 23.95 | 5.8 | 5.8 | 5.8 | 5.8 | 5.8 | 3 | 5.8 | 5.8 | 68.33 | 136.66 | 136.66 | MBC (B. cereus [24]): 29.75 µM; MIC (B. cereus [24]): 23.95 µM; MIC (P. aeruginosa PA01 [6]): 23.95 µM; MIC (S. aureus PIII [25]): 5.8 µM; MBEC (B. cereus [26]): 273.32 µM; MBEC (E. coli NCTC 8196 [27]): 136.66 µM; MBEC (P. aeruginosa PA01 [18]): 136.66 µM; MBEC (P. mirabilis NCTC 12442 [19]): 546.64 µM; MBEC (S. aureus PIII [28]): 91.11 µM; MBEC [21]: 68.33 µM
3 | CCCCCCCC[n+]1cccc2ccccc21.[Br-] [1-alkyl-3-quinolinium bromides 8] | 363 | 242 | 484 | 242 | 242 | 121.2 | 242 | 60 | 605 | 363 | 242 | 484 | 242 | 242 | 121.2 | 242 | 121.2 | 7826 | 7826 | 9782 | MBC (B. cereus [24]): 726 µM; MIC (B. cereus [24]): 484.78 µM; MIC (P. aeruginosa PA01 [6]): 484.78 µM; MIC (S. aureus PIII [25]): 242 µM; MBEC (B. cereus [26]): 7826 µM; MBEC (E. coli NCTC 8196 [27]): 8315 µM; MBEC (P. aeruginosa PA01 [18]): 8315 µM; MBEC (P. mirabilis NCTC 12442 [19]): 7826 µM; MBEC (S. aureus PIII [28]): 7826 µM; MBEC [21]: 3913 µM
